Data: the NIST ThermoML archive (doi:10.1021/je0342320)

Experiment: xn = mol fraction of the nth substance listed
Settings: Liquid, Vibrating tube method

CCCCCCCCCC [decane] + COC(=O)OC
mass density [kg/m3]
Settings | 100 kPa | 10000 kPa | 20000 kPa | 30000 kPa | 40000 kPa
308.15 K, x2 = 0.0676 | – | – | – | 748.49 | –
308.15 K, x2 = 0.2303 | – | – | – | 774.52 | –
308.15 K, x2 = 0.2934 | – | – | – | 786.53 | –
308.15 K, x2 = 0.4055 | – | – | – | 810.51 | –
308.15 K, x2 = 0.502 | – | – | 827.62 | 835.23 | –
308.15 K, x2 = 0.5476 | – | – | 840.77 | 848.52 | –
308.15 K, x2 = 0.5883 | – | – | 853.46 | 861.27 | –
308.15 K, x2 = 0.665 | – | – | 880.05 | 888.01 | –
308.15 K, x2 = 0.7101 | – | – | 898.05 | 906.21 | –
308.15 K, x2 = 0.7993 | – | – | 937.83 | 946.02 | –
308.15 K, x2 = 0.9062 | – | – | 998.48 | 1006.83 | –
313.15 K, x2 = 0.0676 | 722.58 | 730.76 | 738.28 | 745.23 | 751.65
313.15 K, x2 = 0.2303 | 747.1 | 755.75 | 763.69 | 770.99 | 777.72
313.15 K, x2 = 0.2934 | 758.66 | 767.5 | 775.54 | 782.96 | 789.79
313.15 K, x2 = 0.4055 | 781.63 | 790.74 | 799.07 | 806.72 | 813.78
313.15 K, x2 = 0.502 | 805.45 | 814.81 | 823.33 | 831.19 | 838.42
313.15 K, x2 = 0.5476 | 818.21 | 827.67 | 836.31 | 844.29 | 851.66
313.15 K, x2 = 0.665 | 856.63 | 866.37 | 875.3 | 883.49 | 891.08
313.15 K, x2 = 0.7101 | 874 | 883.94 | 893.08 | 901.47 | 909.27
313.15 K, x2 = 0.7993 | 913.46 | 923.44 | 932.63 | 941.03 | 948.81
313.15 K, x2 = 0.9062 | 973.48 | 983.52 | 992.81 | 1001.36 | 1009.35
318.15 K, x2 = 0.0676 | 718.68 | 727.04 | 734.75 | 741.84 | 748.36
318.15 K, x2 = 0.2303 | 742.9 | 751.73 | 759.87 | 767.35 | 774.2
318.15 K, x2 = 0.2934 | 754.31 | 763.4 | 771.65 | 779.22 | 786.19
318.15 K, x2 = 0.4055 | 777.08 | 786.45 | 794.97 | 802.8 | 809.98
318.15 K, x2 = 0.502 | 800.57 | 810.24 | 819.01 | 827.05 | 834.42
318.15 K, x2 = 0.5476 | 813.18 | 822.96 | 831.86 | 840 | 847.53
318.15 K, x2 = 0.665 | 851.25 | 861.33 | 870.52 | 878.91 | 886.65
318.15 K, x2 = 0.7101 | 868.41 | 878.62 | 888.03 | 896.64 | 904.62
318.15 K, x2 = 0.7993 | 907.56 | 917.9 | 927.38 | 936.02 | 944
318.15 K, x2 = 0.9062 | 967.13 | 977.56 | 987.16 | 995.97 | 1004.15
323.15 K, x2 = 0.0676 | 714.71 | 723.36 | 731.25 | 738.46 | 745.15
323.15 K, x2 = 0.2303 | 738.81 | 747.9 | 756.2 | 763.83 | 770.85
323.15 K, x2 = 0.2934 | 749.94 | 759.3 | 767.8 | 775.53 | 782.66
323.15 K, x2 = 0.4055 | 772.41 | 782.1 | 790.9 | 798.87 | 806.24
323.15 K, x2 = 0.502 | 795.68 | 805.66 | 814.72 | 822.91 | 830.5
323.15 K, x2 = 0.5476 | 808.16 | 818.26 | 827.41 | 835.74 | 843.43
323.15 K, x2 = 0.665 | 845.86 | 856.25 | 865.73 | 874.34 | 882.27
323.15 K, x2 = 0.7101 | 862.69 | 873.27 | 882.95 | 891.78 | 899.97
323.15 K, x2 = 0.7993 | 901.72 | 912.4 | 922.17 | 931.08 | 939.25
323.15 K, x2 = 0.9062 | 960.79 | 971.62 | 981.53 | 990.6 | –
328.15 K, x2 = 0.0676 | 710.69 | 719.66 | 727.74 | 735.12 | 741.93
328.15 K, x2 = 0.2303 | 734.47 | 743.93 | 752.49 | 760.25 | 767.41
328.15 K, x2 = 0.2934 | 745.53 | 755.2 | 763.94 | 771.85 | 779.13
328.15 K, x2 = 0.4055 | 767.74 | 777.74 | 786.78 | 794.98 | 802.5
328.15 K, x2 = 0.502 | 790.73 | 801.04 | 810.36 | 818.78 | 826.54
328.15 K, x2 = 0.5476 | 803.07 | 813.56 | 822.99 | 831.5 | 839.36
328.15 K, x2 = 0.665 | 840.35 | 851.18 | 860.94 | 869.79 | 877.9
328.15 K, x2 = 0.7101 | 857.01 | 867.93 | 877.85 | 886.87 | 895.22
328.15 K, x2 = 0.7993 | 895.68 | 906.86 | 916.93 | 926.1 | 934.48
328.15 K, x2 = 0.9062 | 954.3 | 965.6 | 975.83 | 985.17 | 993.79
